Experimental data reported in patent publication US20160106102A1, “KNOWN AND NEW HETEROCYCLIC COMPOUNDS AS PEST CONTROL AGENTS” (BAYER CROPSCIENCE AKTIENGESELLSCHAFT, priority 2013, published 2016).
Where two headings read alike, the source gives them in different places.

Assays:
Myzus persicae = Myzus persicae - sachet test; assay type: in vivo; conditions: 100% = all animals killed
Method: Myzus persicae—Sachet Test Solvent: 2% by vol. of N-methylpyrrolidone • 2% by vol. of diacetone alcohol To produce an appropriate active ingredient formulation, the active ingredient is mixed with the specified amounts of solvent and the concentrate is diluted to the desired concentration with water. The active ingredient formulation is added to a specific nutrient medium in the desired concentration by pipetting. This plate is sealed and combined with a further plate populated with the green peach aphid (Myzus persicae). After the desired time, the kill in % is determined. 100% means that all the animals have been killed; 0% means that no animals have been killed.

[1] = log P determination by LC-MS in the acidic range; assay type: physicochemical
Description: The LC-MS determination in the acidic range is effected at pH 2.7 using 0.1% aqueous formic acid and acetonitrile (contains 0.1% formic acid) as eluents, linear gradient from 10% acetonitrile to 95% acetonitrile. Alternatively, the determination is effected in the acidic range at pH 2.3 using 0.1% aqueous phosphoric acid and acetonitrile as eluents; linear gradient from 10% acetonitrile to 95% acetonitrile.

[2] = application rate of 6 ppm in nutrient medium
[3] = application rate of 30 ppm in nutrient medium
[4] = Myzus persicae, application rate of 30 ppm in nutrient medium, read-out: efficacy (kill in %)
[5] = Table 4, HPLC on reversed-phase column (C 18), 55° C., acidic range (pH 2.7 or pH 2.3)
[6] = Table 3, HPLC on reversed-phase column (C 18), 55° C., acidic range (pH 2.7 or pH 2.3)
[7] = Table 2, compounds of the formula (I-2), acidic range pH 2.7 or pH 2.3

| log P (acid) ([1]; LC-MS in the acidic range) | SMILES | efficacy (kill in %) (Myzus persicae; [2]) | efficacy (kill in %) (Myzus persicae; [3]) | also measured |
| --- | --- | --- | --- | --- |
| 1.59 | Cc1cc(NC(=O)c2cccnc2)nn1-c1cccc(C#N)c1 [Compound I-1-217] | 100% | 100% | – |
| 1.4 | Cc1cc(NC(=O)c2cncc(Cl)c2)nn1Cc1ncccn1 [Compound I-1-276] | 100% | 100% | – |
| – | O=C(Nc1cnn(-c2ccc(C(F)(F)F)cn2)n1)c1cccnc1 [Compound I-3-14, N-{2-[5-(Trifluoromethyl)pyridin-2-yl]-2H-1,2,3-triazol-4-yl}nicotinamide] | – | – | pest or weed control at 6 ppm (Myzus persicae; Myzus persicae, application rate of 6 ppm in nutrient medium, read-out: efficacy (kill in %)): 100%; pest or weed control at 30 ppm (Myzus persicae; [4]): 100%; chromatographic logP ([1]; reversed-phase HPLC column (C18), pH 2.7, Table 3, HPLC on reversed-phase column (C 18), 55° C., acidic range (pH 2.7 or pH 2.3), read-out: log P (acid)): 1.91; chromatographic logP ([1]; reversed-phase HPLC column (C18), pH 2.7, values given in the synthesis examples and NMR lists, read-out: HPLC-MS: log P): 1.91 |
| – | O=C(Nc1nnn(Cc2ccc(Cl)nc2)n1)c1cccnc1 [Compound I-4-3] | 100% | 100% | log P (acid) [1, 5]: 1.05 |
| 0.82 | Cc1cc(NC(=O)c2cccnc2)nn1Cn1c(=O)n(C)c(=O)n1C [Compound I-1-145] | – | 100% | – |
| 2.28 | Cc1cc(NC(=O)c2cccnc2)nn1C(=O)NC(C)c1ccc(F)cc1 (centres unmarked) [Compound I-1-332] | 100% | 100% | – |
| 1.92 | CCCCNC(=O)n1nc(NC(=O)c2cccnc2)cc1C [Compound I-1-315] | 100% | 100% | – |
| – | O=C(Nc1cnn(-c2ncccc2Br)n1)c1cccnc1 [Compound I-3-7] | 80% | 100% | log P (acid) [1, 6]: 1.33 |
| 1.61 | Cc1cc(NC(=O)c2cccnc2)nn1C(C)(C)C [Compound I-1-347] | 80% | 100% | – |
| 2.68 | CC(C)(C)c1ccc(Cn2ccc(NC(=O)c3cccnc3)n2)cc1 [Compound I-1-75] | – | 100% | – |
| 2.20 | O=C(Nc1ccn(Cc2cccc(OC(F)(F)F)c2)n1)c1cccnc1 [Compound I-1-73] | – | 100% | – |
| 2.11 | Cc1ccc(C)c(Cn2ccc(NC(=O)c3cccnc3)n2)c1 [Compound I-1-81] | – | 100% | – |
| 1.24 | CCNC(=O)n1nc(NC(=O)c2cccnc2)cc1C [Compound I-1-288] | 100% | 100% | – |
| 0.63 | Cc1c(C#N)c(NC(=O)c2cccnc2)nn1Cc1ncccn1 [Compound I-1-194] | – | 100% | – |
| 2.4 | Cc1cc(C)cc(-n2nc(NC(=O)c3cccnc3)cc2C)c1 [Compound I-1-208] | – | 100% | – |
| – | Cn1nnc(NC(=O)c2cccnc2)n1 [Compound I-4-2] | – | 100% | log P (acid) [1, 5]: <−0.23 |
| 2.59 | Cc1cc(NC(=O)c2ccc(Cl)nc2)nn1Cc1ccccc1F [Compound I-1-93] | – | 100% | – |
| 1.18 | CC(=O)n1nc(NC(=O)c2cccnc2)cc1C [Compound I-1-120] | 100% | 100% | – |
| – | Cc1cc(C)nc(-n2cnc(NC(=O)c3cccnc3)n2)n1 [Compound I-2-22] | – | 80% | log P (acid) [1, 7]: 0.86 |
| – | O=C(Nc1cnn(-c2ncc(C(F)(F)F)cc2Cl)n1)c1cccnc1 [Compound I-3-5] | – | 100% | log P (acid) [1, 6]: 2.12 |
| 0.92 | Cc1noc(Cn2nc(NC(=O)c3cccnc3)cc2C)n1 [Compound I-1-284] | 100% | 100% | – |
| 0.37 | Cc1cn(CC#N)nc1NC(=O)c1cccnc1 [Compound I-1-199] | – | 100% | – |

| log P (acid) ([1]; LC-MS in the acidic range) | SMILES | efficacy (kill in %) (Myzus persicae; [2]) | efficacy (kill in %) (Myzus persicae; [3]) | also measured |
| --- | --- | --- | --- | --- |
| 2.18 | Cc1cc(NC(=O)c2cccnc2)nn1C(=O)NCCOc1ccccc1 [Compound I-1-168] | 100% | 100% | – |
| 2.09 | Cc1cc(NC(=O)c2cccnc2)nn1-c1ccc(Cl)cc1 [Compound I-1-209] | 80% | 100% | – |
| 2.31 | Cc1cc(NC(=O)c2cccnc2)nn1C=C(F)c1ccc(Cl)cn1 [Compound I-1-306] | – | 100% | – |
| 2.29 | Cc1cc(NC(=O)c2cccnc2)nn1C(=O)NCc1ccccc1Cl [Compound I-1-323] | 100% | 100% | – |
| – | Cc1cn(Cc2ncccn2)nc1NC(=O)c1cccnc1 [Compound I-1-136, N-[4-Methyl-1-(pyrimidin-2-ylmethyl)-1H-pyrazol-3-yl]nicotinamide] | – | – | pest or weed control at 30 ppm (Myzus persicae; [4]): 100%; chromatographic logP ([1]; pH 2.7, LC-MS in the acidic range, read-out: log P (acid)): 0.44; chromatographic logP ([1]; pH 2.7, values given in the synthesis examples and NMR lists, read-out: HPLC-MS: log P): 0.44 |
| 1.97 | Cc1cc(NC(=O)c2cccnc2)nn1C(=O)NCc1ccccc1 [Compound I-1-322] | 100% | 100% | – |
| – | O=C(Nc1cnn(-c2ncccc2Cl)n1)c1cccnc1 [Compound I-3-16] | – | 100% | log P (acid) [1, 6]: 1.32 |
| 2 | Cc1cc(NC(=O)c2cccnc2)nn1Cc1nc2cc(Cl)ccc2o1 [Compound I-1-340] | 100% | 100% | – |
| 2.1 | O=C(Nc1cc(C2CC2)n(Cc2ccccc2)n1)c1cccnc1 [Compound I-1-56] | – | 100% | – |
| 2.58 | Cc1cc(NC(=O)c2cncc(Br)c2)nn1Cc1ccccc1 [Compound I-1-99] | – | 100% | – |
| 0.42 | O=C(Nc1nn(Cc2ncccn2)cc1F)c1cccnc1 [Compound I-1-267] | – | 100% | – |
| 2.18 | Cc1cc(NC(=O)c2cncc(F)c2)nn1-c1ccccc1 [Compound I-1-350] | – | 80% | – |
| 1.59 | O=C(Nc1ccn(Cc2cccc(F)c2)n1)c1cccnc1 [Compound I-1-70] | – | 100% | – |
| 0.97 | Cc1cc(NC(=O)c2cccnc2)nn1C(=O)NCCS(C)(=O)=O [Compound I-1-309] | 100% | 100% | – |
| 0.55 | CNS(=O)(=O)n1nc(NC(=O)c2cccnc2)cc1C [Compound I-1-257] | – | 100% | – |
| 2.43 | COc1ccc(C(=O)Nc2cc(C)n(Cc3ccccc3)n2)cn1 [Compound I-1-104] | 80% | 80% | – |
| – | Cn1ncc(NC(=O)c2cccnc2)n1 [Compound I-3-2] | – | 100% | log P (acid) [1, 6]: 0.38 |
| 2.51 | Cc1cc(NC(=O)c2cccnc2)nn1S(=O)(=O)N1CCC(C)CC1 [Compound I-1-162] | 100% | 100% | – |
| – | Cn1cnc(NC(=O)c2cccnc2)n1 [Compound I-2-14] | – | 100% | log P (acid) [1, 7]: <−0.23 |
| 2.09 | O=C(Nc1ccn(Cc2ccccc2C(F)(F)F)n1)c1cccnc1 [Compound I-1-91] | – | 100% | – |
| 1.99 | Cc1cc(NC(=O)c2cccnc2)nn1CC1COc2ccccc2O1 (centres unmarked) [Compound I-1-157] | – | 100% | – |
